Measured values: patent US12629374B2, “Antimalarial agents” (Merck Sharp & Dohme LLC, priority 2020, dated 2026)
Read-outs that look alike come from different tables or passages of the source.

Test system: ring stage parasites
Assay: Parasite growth potency assay, 72 hours, LDH readout
Format: cell-based
Settings: parasite growth measured by LDH assay after 72 hours at 37° C., 0.7% rings, 2% haematocrit, read-out: EC50
In short: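 Parasite growth was quantified by LDH assay after a −80 °C freeze-thaw. Before that, compound was incubated for 72 h at 37 °C under humidified gas with ring-stage cultures adjusted to 0.7% parasitemia and 2% haematocrit in serum- and albumax-supplemented RPMI-Hepes.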

Compound | EC50 (72 h) [nM] | EC50 [nM] | also measured
CCC1(CC)CC(=O)N(Cc2cccc(C(=O)N[C@@H]3c4cc(F)ccc4OC(C)(C)[C@H]3O)c2)C(=N)N1 (stereo in doubt) [Example 147, [4,4-diethyl-1-[[3-[(6-fluoro-3-hydroxy-2,2-dimethyl-chroman-4-yl)carbamoyl]phenyl]methyl]-6-oxo-hexahydropyrimidin-2-ylidene]ammonium; 2,2,2-trifluoroacetate] | 1 | – | –
CCC1(CC)CC(=O)N(C(COC)c2cccc(C(=O)N[C@@H]3c4ccccc4OC[C@@]3(C)O)c2)C(=N)N1 (stereo partly drawn) [Example 230, 3-[l-(4,4-diethyl-2-imino-6-oxo-hexahydropyrimidin-1-yl)-2-methoxy-ethyl]-N-[(3S,4R)-3-hydroxy-3-methyl-chroman-4-yl]benzamide] | – | 0.84 | –
CCC1(CC)CC(=O)N([C@@H](c2cncc(F)c2)c2cccc(C(=O)N[C@H]3CCOc4ccccc43)c2)C(=N)N1 [Example 106B, [1-[[3-[[(4S)-chroman-4-yl]carbamoyl]phenyl]-(5-fluoropyridin-1-ium-3-yl)methyl]-4,4-diethyl-6-oxo-hexahydropyrimidin-2-ylidene]ammonium; 2,2,2-trifluoroacetate] | 3.1 | – | –
CCC1(CC)CC(=O)N(C(c2cncnc2)c2cccc(C(=O)N[C@@H]3c4ccccc4C[C@H]3O)c2)C(=N)N1 (stereo partly drawn) [Example 110A, 3-[(4,4,-diethyl-2-imino-6-oxo-hexahydropyrimidin-1-yl)-pyrimidin-5-yl-methyl]-N-[(1R,2R)-2-hydroxyindan-1-yl]benzamide] | – | 4 | –
CCC1(CC)CC(=O)N(Cc2cc(C(=O)N[C@H]3CCOc4ccccc43)ccn2)C(=N)N1 [Example 23, [1-[[4-[[(4S)-chroman-4-yl]carbamoyl]-2-pyridyl]methyl]-4,4-diethyl-6-oxo-hexahydropyrimidin-2-ylidene]ammonium; 2,2,2-trifluoroacetate] | 11.5 | – | –
CCC1(CC)CC(=O)N([C@H](c2cccc(C(=O)N[C@@H]3c4ccccc4C[C@H]3O)c2)c2cccc(S(C)(=O)=O)c2)C(=N)N1 [Example 124B, [4,4-diethyl-1-[[3-[[(1R,2R)-2-hydroxyindan-1-yl]carbamoyl]phenyl]-(3-methylsulfonylphenyl)methyl]-6-oxo-hexahydropyrimidin-2-ylidene]ammonium; 2,2,2-trifluoroacetate] | 53 | – | –
CCC1(CC)CC(=O)N([C@H](CCOC)c2cccc(C(=O)NC3c4ccccc4C(F)(F)C3O)c2)C(=N)N1 (stereo partly drawn) [Example 189B, [1-[(1R)-1-[3-[(3,3-difluoro-2-hydroxy-indan-1-yl)carbamoyl]phenyl]-3-methoxy-propyl]-4,4-diethyl-6-oxo-hexahydropyrimidin-2-ylidene]ammonium; chloride] | – | 292 | –
C#CCCCC(c1cccc(C(=O)N[C@@H]2CCOc3ccccc32)c1)N1C(=N)NC(CC)(CC)CC1=O (stereo partly drawn) [Example 210B, [1-[1-[3-[[(4R)-chroman-4-yl]carbamoyl]phenyl]hex-5-ynyl]-4,4-diethyl-6-oxo-hexahydropyrimidin-2-ylidene]ammonium; 2,2,2-trifluoroacetate] | – | – | EC50 (trifluoroacetate): 2.3 nM
CCC1(CC)CC(=O)N(Cc2cccc(C(=O)N[C@H]3CCOc4ccc(C)cc43)c2)C(=N)N1 (stereo in doubt) [Example 217, 3-[(4,4-diethyl-2-imino-6-oxo-hexahydropyrimidin-1-yl)methyl]-N-(6-methylchroman-4-yl)benzamide] | 10 | – | –
CCC1(CC)CC(=O)N(Cc2cccc(C(=O)N[C@@H]3c4ccccc4C(F)(F)C3O)c2)C(=N)N1 (stereo in doubt) [Example 190, [1-[[3-[(3,3-difluoro-2-hydroxy-indan-1-yl)carbamoyl]phenyl]methyl]-4,4-diethyl-6-oxo-hexahydropyrimidin-2-ylidene]ammonium; 2,2,2-trifluoroacetate] | 6.6 | – | –
CCC1(C)CC(=O)N([C@H](CCOC)c2cccc(C(=O)N[C@@H]3c4ccccc4CC3(C)O)c2)C(=N)N1 (stereo partly drawn) [Example 196B, 3-[(1R)-1-(4-ethyl-2-imino-4-methyl-6-oxo-hexahydropyrimidin-1-yl)-3-methoxy-propyl]-N-[(1R,2S)-2-hydroxy-2-methyl-indan-1-yl]benzamide] | – | 3.1 | –
